# Laboratory results: patent publication US20250171431A1, “HETEROCYCLIC INHIBITORS OF IGF-1R FOR TREATMENT OF DISEASE” (HORIZON THERAPEUTICS IRELAND DAC, priority 2023, published 2025)
# Biological target: IGF-1R (Homo sapiens (Human), UniProt P08069)
# Assay: Example B-1: IGF-1R Assay (PC3 cells, IGF1 stimulation, AlphaLISA)
# Type: cell-based
# Details: 200 ng/mL IGF1 stimulation, read-out: Biological Activity against IGF-1R IC50
# Experimental: 50K PC3 cells were seeded on day 1 in 50 μL of media in 96-well plate and incubated overnight at 37° C., 5% CO2. On day 2, all cells were expected to be at 80-90% confluency. Cells were starved for two hours by changing the media to 90 μL of EMEM serum-free media and incubated for 2 hours. Next, cells were treated with 10 μL of 10× concentrated and 3× serially diluted compounds for two hours. It makes 1× of compounds in 100 μL media. This was followed by stimulation of cells with 11×IGF1 for 30 min in 10 μL of serum-free EMEM media at the final concentration of 200 ng/mL.
# The media was removed and replaced by 50 μL of 1× lysis buffer from the AlphaLISA kit (with 1× of cOmplete™ protease inhibitor). The plates were sealed, and cells were allowed to lyse for 10 min in the shaker before storing the plate at −20° C. until used. The AlphaLISA assay with processed cell lysates were performed as described in the protocol. Briefly, 10 μL of the undiluted sample were loaded to 384 well Optiplates and 5 μL of the acceptor mix (as described in the AlphaLISA kit) was added to each well. The plates were sealed and briefly vortexed followed by the incubation at RT for 3 hours. In the dark, 5 μL of donor mix was added to each well. All plates were sealed and stored at RT overnight. The plates were read in EnVision reader using standard AlphaLISA settings.
# Compound activity was analyzed using CBIS data analysis suite (ChemInnovation, CA). Percentage inhibition was calculated using the following formula: % Inhibition=100%×(1−(mean RLU of test sample−mean RLU of vehicle control)/(mean RLU of EC80 control−mean RLU of vehicle control)). The activity for representative examples of the invention is shown in the following table, wherein A: IC50≤500 nM; B: 500 nM<IC50≤2 μM; C: 2 μM<IC50≤10 μM; D: IC50>10 μM.
# IGF-1R, sequence (P08069 31-1367): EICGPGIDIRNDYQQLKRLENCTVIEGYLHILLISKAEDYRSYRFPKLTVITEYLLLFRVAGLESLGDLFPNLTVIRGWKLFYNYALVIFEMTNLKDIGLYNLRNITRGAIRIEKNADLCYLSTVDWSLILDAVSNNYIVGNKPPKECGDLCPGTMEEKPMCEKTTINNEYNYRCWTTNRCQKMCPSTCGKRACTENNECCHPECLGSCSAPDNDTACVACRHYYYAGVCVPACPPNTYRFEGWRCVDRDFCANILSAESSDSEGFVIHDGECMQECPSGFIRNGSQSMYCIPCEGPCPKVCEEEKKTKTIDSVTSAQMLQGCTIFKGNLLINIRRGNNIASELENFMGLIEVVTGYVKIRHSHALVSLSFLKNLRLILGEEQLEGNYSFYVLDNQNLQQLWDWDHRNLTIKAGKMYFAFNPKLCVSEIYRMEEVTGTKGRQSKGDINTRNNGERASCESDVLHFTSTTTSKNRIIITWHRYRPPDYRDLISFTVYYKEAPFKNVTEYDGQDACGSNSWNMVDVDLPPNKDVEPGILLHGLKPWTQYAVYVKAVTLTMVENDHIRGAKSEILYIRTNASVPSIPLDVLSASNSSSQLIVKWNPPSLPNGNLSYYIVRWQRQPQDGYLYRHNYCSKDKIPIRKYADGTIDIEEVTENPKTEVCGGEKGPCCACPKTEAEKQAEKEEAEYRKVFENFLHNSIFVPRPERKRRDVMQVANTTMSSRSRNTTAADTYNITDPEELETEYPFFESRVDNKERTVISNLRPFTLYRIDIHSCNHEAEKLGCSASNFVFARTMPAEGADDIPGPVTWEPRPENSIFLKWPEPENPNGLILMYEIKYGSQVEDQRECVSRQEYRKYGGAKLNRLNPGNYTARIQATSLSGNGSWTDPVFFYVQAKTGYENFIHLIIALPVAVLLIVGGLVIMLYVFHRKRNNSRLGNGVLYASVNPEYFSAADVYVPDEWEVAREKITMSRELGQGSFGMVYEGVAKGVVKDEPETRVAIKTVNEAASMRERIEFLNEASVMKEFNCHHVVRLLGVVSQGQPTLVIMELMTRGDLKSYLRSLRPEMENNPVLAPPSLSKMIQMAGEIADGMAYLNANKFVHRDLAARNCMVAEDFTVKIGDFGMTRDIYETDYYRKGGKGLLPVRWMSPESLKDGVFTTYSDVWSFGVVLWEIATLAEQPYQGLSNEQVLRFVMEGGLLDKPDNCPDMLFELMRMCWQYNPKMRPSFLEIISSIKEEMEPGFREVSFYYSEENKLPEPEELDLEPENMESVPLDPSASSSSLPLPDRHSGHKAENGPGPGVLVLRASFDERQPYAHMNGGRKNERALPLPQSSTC
row,IC50 [nM],SMILES
1,2000 to 10000,"Clc1ccc2cc(Nc3ccnc(Nc4ccc(OCCCN5CCOCC5)cc4)n3)cnc2c1 [Compound 410, 4-(7-chloro-3-quinolylamino)-2-[p-(3-morpholinopropoxy)phenylamino]pyrimidine]"
2,≤ 500,"COc1cc(Nc2nccc(Nc3cnc4cc(F)c(F)cc4c3)n2)cnc1N1CCN(C2COC2)CC1 [Compound 51, 4-(6,7-difluoro-3-quinolylamino)-2-{5-methoxy-6-[4-(3-oxetanyl)-1-piperazinyl]-3-pyridylamino}pyrimidine]"
3,500 to 2000,"C[C@H]1COc2ncc(Nc3ccnc(Nc4ccc(OCCCN5CCOCC5)cc4)n3)cc2O1 [Compound 106, 4-[(S)-2-methyl-2,3-dihydro-1,4-dioxa-5-aza-7-naphthylamino]-2-[p-(3-morpholinopropoxy)phenylamino]pyrimidine]"
4,≤ 500,"CCc1ccc2ncc(Nc3ccnc(Nc4ccc(OCCCN5CCOCC5)c(OC)c4)n3)cc2c1 [Compound 104, 4-(6-ethyl-3-quinolylamino)-2-[3-methoxy-4-(3-morpholinopropoxy)phenylamino]pyrimidine]"
5,2000 to 10000,"FC(F)(F)c1ccc2cc(Nc3ccnc(Nc4ccc(OCCCN5CCOCC5)cc4)n3)cnc2c1 [Compound 395, 2-[p-(3-morpholinopropoxy)phenylamino]-4-[7-(trifluoromethyl)-3-quinolylamino]pyrimidine]"
6,≤ 500,"O=S1(=O)CCN([C@H]2CC[C@@H](Oc3ccc(Nc4nccc(Nc5cnc6ccccc6c5)n4)cc3)CC2)CC1 [Compound 38, 4-[(1s,4s)-4-{p-[4-(3-quinolylamino)-2-pyrimidinylamino]phenoxy}cyclohexyl]-126,4-thiazinane-1,1-dione]"
7,≤ 500,"COc1cc(Nc2nccc(Nc3cc4cccc(F)c4[nH]c3=O)n2)cnc1N1CCNC(C(F)F)C1 (stereo not shown) [Compound 233, 3-(2-{6-[3-(difluoromethyl)-1-piperazinyl]-5-methoxy-3-pyridylamino}-4-pyrimidinylamino)-8-fluoro-1,2-dihydro-2-quinolinone]"

# The remaining lines, values behind:
row,SMILES,IC50 [nM]
1,"COc1cc(Nc2nccc(Nc3cnc4c(c3)C(C)(C)OC(C)(C)C4)n2)ccc1OCCCN1CCCCC1 [Compound 386, 2-[3-methoxy-4-(3-piperidinopropoxy)phenylamino]-4-(5,5,7,7-tetramethyl-7,8-dihydro-5H-6-oxa-1-azanaphth-3-ylamino)pyrimidine]",500 to 2000
2,"COc1cc(Nc2nccc(Nc3cnc4ccc(C)cc4c3)n2)ccc1O[C@H]1C[C@H](N(C)C)C1 [Compound 335, 2-{3-methoxy-4-[(1r,3r)-3-(dimethylamino)cyclobutoxy]phenylamino}-4-(6-methyl-3-quinolylamino)pyrimidine]",≤ 500
3,"CN(C)[C@H]1C[C@@H](Oc2ncc(Nc3nccc(Nc4cnc5c(c4)OCCO5)n3)cc2C#N)C1 [Compound 46, 5-[4-(2,3-dihydro-1,4-dioxa-5-aza-7-naphthylamino)-2-pyrimidinylamino]-2-[(1s,3s)-3-(dimethylamino)cyclobutoxy] nicotinonitrile]",≤ 500
4,"c1ccc2ncc(Nc3ccnc(Nc4ccc(O[C@H]5C[C@H](N6CCOCC6)C5)cc4)n3)cc2c1 [Compound 26, 4-(3-quinolylamino)-2-{p-[(1r,3r)-3-morpholinocyclobutoxy]phenylamino}pyrimidine]",≤ 500
5,"COc1cc(Nc2nccc(Nc3cc4cccc(F)c4[nH]c3=O)n2)ccc1N1CCN(C)C(C)(C)C1 [Compound 175, 8-fluoro-3-((2-((3-methoxy-4-(3,3,4-trimethylpiperazin-1-yl)phenyl)amino)pyrimidin-4-yl)amino)quinolin-2(1H)-one]",≤ 500
6,"COc1cc(Nc2nccc(Nc3cnc4[nH]ncc4c3)n2)ccc1O[C@H]1C[C@@H](N(C)C)C1 [Compound 300, 2-{3-methoxy-4-[(1s,3s)-3-(dimethylamino)cyclobutoxy]phenylamino}-4-(1H-1,2,7-triazainden-5-ylamino)pyrimidine]",500 to 2000
